The test system of assay [1] is mouse peripheral white blood cells. The assay is described as follows: Activity of increasing white blood cells (WBC) in mice. In kind it is in vivo, CDF1 male mice. Conditions: peripheral blood on day 7. As for the experimental part: This activity was determined using CDF1 male mice (18-20 g): mice were grouped as: vehicle, 30 mg/kg cyclophosphamide (CTX), 15 mg/kg test compounds. The mice were treated by IP injection: test compounds on day 1, 3, and 5 for three doses, vehicle and CTX daily for 6 days. On day 7, peripheral blood samples were collected and blood cells counted.

The subject of assay [2] is white blood cells of beagle dog. Description: Activity of increasing WBC in dogs. In kind it is in vivo. Conditions: for WBC: blood count day 5; for % increase (compared with the control): day 5. As to the method:
The effect of the test compounds was tested on beagle dog with a daily IV injection at different doses for four days. The blood account was done at day 5.

A further assay relates to white blood cells. Description: Therapeutical effect on white blood cells of mice pretreated with CTX. In kind it is in vivo, CDF1 male mice. Conditions: for number of white blood cell account, Day 6: Day 6: after CTX 30 mg/kg IP daily for 6 days, before therapeutical treatment started on 7th day. As for the experimental part: This activity was determined using CDF1 male mice: mice were grouped and treated with daily CTX IP injection of 30 mg/kg for 6 days. […] Positive control group was treated with daily subcutaneously injection of 20 μg/kg G-CSF. Peripheral blood samples were collected and blood cells counted on the 10th day.

Regarding `COc1ccc(-n2c3cssc-3c(NC(=O)c3cc(C(F)(F)F)cc(C(F)(F)F)c3)c2=O)c(OC)c1` [compound 0058, N-[4-(2,4-Dimethoxy-phenyl)-5-oxo-4,5-dihydro-[1,2]dithiolo[4,3-b]pyrrol-6-yl]-3,5-bis-trifluoromethyl-benzamide], the WBC is 23.9 ± 8.9 ×10^9/L in assay [1] (test compound 15 mg/kg IP on day 1, 3 and 5); 13.0 ± 2.0 ×10^9/L in assay [2] (1 mg/kg daily IV for four days); 16.8 ± 1.0 ×10^9/L in assay [2] (2 mg/kg daily IV for four days); 21.5 ± 4.1 ×10^9/L in assay [2] (4 mg/kg daily IV for four days); 28.8 ± 7.0 ×10^9/L in assay [2] (8 mg/kg daily IV for four days). The “% increase (compared with the control)” value amounted to 15.9% in assay [2] (1 mg/kg daily IV for four days), 48.2% in assay [2] (2 mg/kg daily IV for four days), 90.3% in assay [2] (4 mg/kg daily IV for four days) and 154.9% in assay [2] (8 mg/kg daily IV for four days). Moreover, the “effect on white blood accounts in dogs (in words)” value in assay [2] (daily IV, 1-8 mg/kg, four days) was “significantly increased white blood accounts”. Further, the “number of white blood cell account, Day 6” value (shortened to “number … Day 6”) in the assay with white blood cells is given as 2.1 ± 0.8 ×10^9/L. Further, the “number of white blood cell account, Day 10” value (from here on “number … Day 10”) with white blood cells (Day 10: CTX 30 mg/kg x 6 days, then test compound 15 mg/kg daily for 3 days from day 7) is reported as 16.2 ± 2.1 ×10^9/L.

For the molecule `O=P1(N(CCCl)CCCl)NCCCO1` (centres unmarked) [CTX, cyclophosphamide, reference compound], in assay [1] (CTX 30 mg/kg IP daily for 6 days), the WBC is 1.41 ± 0.50 ×10^9/L. For the same molecule, the “number … Day 6” value in the assay on white blood cells is listed as 1.5 ± 0.2 ×10^9/L. Also, in the assay on white blood cells (Day 10: CTX 30 mg/kg IP daily for 6 days only), the “number … Day 10” value is given as 4.8 ± 0.8 ×10^9/L.

B1: G-CSF: granulocyte-colony stimulating factor, protein that selectively stimulates production of white blood cells; positive control (protein, chains of the INN, looked up)
chain: MTPLGPASSLPQSFLLKCLEQVRKIQGDGAALQEKLCATYKLCHPEELVLLGHSLGIPWAPLSSCPSQALQLAGCLSQLHSGLFLYQGLLQALEGISPELGPTLDTLQLDVADFATTIWQQMEELGMAPALQPTQGAMPAFASAFQRRAGGVLVASHLQSFLEVSYRVLRHLAQP
modifications: N-terminal methionine, non-glycosylated
As to B1, the “number … Day 6” value in the assay with white blood cells was 1.8 ± 0.7 ×10^9/L. The “number … Day 10” value with white blood cells (Day 10: CTX 30 mg/kg x 6 days, then G-CSF 20 μg/kg daily subcutaneously (positive control)) is 14.7 ± 1.8 ×10^9/L.

These data come from patent publication US8071637B2, “Dithiolopyrrolones compounds and their therapeutic applications” (Welichem Biotech Inc., priority 2006, dated 2011).
